# Tests used:
# ENT2 [1] = target: T1, ENT2 (Homo sapiens, UniProt Q14542); assay: [3H]uridine uptake in PK15NTD/ENT2 cells; type: cell-based; settings: [3H]uridine 1 μM, 1 min, PK15NTD/ENT2 cells; read-out: IC50 against ENT2
# T1 construct: expressed in transfected cells
# T1 sequence (Q14542 1-456): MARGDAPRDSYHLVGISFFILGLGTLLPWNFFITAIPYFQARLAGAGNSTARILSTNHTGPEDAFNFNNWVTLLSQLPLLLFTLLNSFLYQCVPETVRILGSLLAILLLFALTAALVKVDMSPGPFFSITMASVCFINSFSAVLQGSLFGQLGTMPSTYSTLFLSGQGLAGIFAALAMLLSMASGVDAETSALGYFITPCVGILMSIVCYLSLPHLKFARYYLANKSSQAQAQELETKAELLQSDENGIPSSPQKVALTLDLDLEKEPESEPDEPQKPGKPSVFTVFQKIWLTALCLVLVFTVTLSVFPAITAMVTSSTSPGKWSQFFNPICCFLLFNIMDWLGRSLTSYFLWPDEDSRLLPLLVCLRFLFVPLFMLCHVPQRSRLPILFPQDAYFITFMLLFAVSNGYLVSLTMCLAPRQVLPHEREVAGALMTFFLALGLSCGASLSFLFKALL
# Method: Nucleoside transporter-deficient porcine kidney fibroblast cells (PK15NTD) stably transfected with cloned human ENT1 or ENT2 ([Ward et al., 2000]) were used as the in vitro models. The cells were cultured in Dulbecco’s Modified Eagle’s Medium (DMEM) supplemented with 10% (v/v) foetal bovine serum, 0.5 mg/ml geneticin, 100 units/ml penicillin, 100 μg/ml streptomycin and 0.25 μg/ml of amphotericin B at 37°C in 5% CO2/95% air.
# The cells were incubated with different concentrations of FPMINT analogues (from 10 nM to 100 μM) containing [^3H]uridine (2 μCi/ml, 1 μM) for 1 min. Passive uridine uptake was determined by incubating the cells in HEPES-buffered Ringer’s solution containing [^3H]uridine in the presence of 0.5 mM NBMPR. The cells were rapidly washed five times with ice-cold phosphate-buffered saline (PBS). After air-drying, the cells were solubilised by overnight incubation in 500 μl of 5% Triton-X100. Next, 300 μl of the cell lysates were mixed with 2 ml of scintillation liquid. The radioactivity of each sample was quantified by a scintillation counter. The protein content in each well was determined spectrophotometrically using a commercial bicinchoninic acid assay (Pierce Biochemicals, Rockford, IL). Uptake values were expressed as picomoles of [^3H]uridine per milligram of cellular protein per minute.
# All data were analysed by GraphPad Prism software (San Diego, CA, United States). Data are expressed as mean ± standard error (SE) of three experiments performed in triplicate. The IC50 values were determined from the dose-response curves fitted with a logistic function. For the kinetic study of [^3H]uridine uptake, apparent K m and V max values were determined from the Michaelis-Menten equation, and K i was determined from the X-intercept of linear regression. Analysis of variance and Student’s t-test were performed for multiple and paired variables, respectively. p values of <0.05 were considered to be statistically significant.
# ENT2 [2] = assay: Western blotting of ENT2 protein expression; type: cell-based, human; settings: 50 µM, 24 h or 48 h
# Method: PK15NTD/ENT1 and PK15NTD/ENT2 cells were grown to confluence in 10-cm culture dishes and treated with 50 µM of compound 3c or an equivalent volume of a vehicle (0.5% DMSO) for 24 h or 48 h. The cells were washed thrice with ice-cold PBS. Total protein was extracted by cell lysis in a lysis buffer (5 mM sodium monophosphate, pH 8) with a protease inhibitor cocktail (Sigma, St Louis, MO, United States; 1:1,000 [v/v]). The protein content was measured by bicinchoninic acid assay. Protein samples were separated by 12.5% sodium dodecyl sulfate–polyacrylamide gel electrophoresis (SDS-PAGE) and blotted onto polyvinylidene difluoride (PVDF) membranes. […] The membranes were then again washed, and the bound secondary antibodies were detected using an enhanced chemiluminescence kit (Bio-Rad, Hercules, CA, United States). […] To semi-quantify the ENT1 and ENT2 protein levels, the same membranes were washed three times with a stripping buffer for 10 min at room temperature, and the protein expression level of β-actin was measured using monoclonal mouse anti-β-actin primary antibodies (1:3,000 [v/v] dilution in a blocking solution). […]
# FIGURE 5 Effects of compound 3c on cytotoxicity and protein expressions of ENT1 and ENT2. […] Total ENT1 and ENT2 from whole-cell lysates were also detected for a comparison. β-actin served as an internal reference. […]
smiles,measurement,setting,value
Cc1cccc(Nc2nc(N)nc(CN3CCN(c4ccc(F)cc4)CC3)n2)c1 [Compound 3c],IC50,ENT2 [1],0.57 µM
same,protein expression level of ENT2,ENT2 [2],unaltered

# Source: PMC8899516, “Structure-Activity Relationship Studies of 4-((4-(2-fluorophenyl)piperazin-1-yl)methyl)-6-imino-N-(naphthalen-2-yl)-1,3,5-triazin-2-amine (FPMINT) Analogues as Inhibitors of Human Equilibrative Nucleoside Transporters” (Frontiers in Pharmacology, 2022)
